In patent publication US8697715B2, “Serine/threonine kinase inhibitors” (Array BioPharma Inc., priority 2012, dated 2014):

Test system: PMA-stimulated P90RSK(Ser380) phosphorylation in HepG2 cells
Experiment: Cellular P90RSK(Ser380) Phosphorylation Assay
Format: cell-based
Conditions: Homo sapiens, read-out: Biological Example 2 IC50 (nM), 1.5 hours compound incubation, PMA 100 ng/mL 30 minutes, normalized to GAPDH, single assay or mean of multiple assays
Experimental: Inhibition of PMA-stimulated P90RSK(Ser380) phosphorylation was determined by the following in vitro cellular mechanistic assay, which comprises incubating cells with a compound for 1.5 hours and quantifying fluorescent pP90RSK(Ser380) signal on fixed cells and normalizing to GAPDH signal.
HepG2 cells were obtained from ATCC and grown in DMEM supplemented with 10% fetal bovine serum. Cells were plated in 96-well plates at 35,000 cells/well and allowed to attach overnight at 37° C./5% CO2. Diluted compounds were then added at a final concentration of 0.5% DMSO. After 1.5 hours compound incubation, cells were stimulated with the addition of phorbol 12-myristate 13-acetate (“PMA”) at a final concentration of 100 ng/mL; the PMA stimulation was a 30-minute incubation at 37° C./5% CO2. After the 30-minute PMA stimulation, cells were washed with phosphate buffered saline (“PBS”) and fixed in 3.7% formaldehyde in PBS at room temperature for 15-20 minutes. This was followed by another wash in PBS and then permeabilization in 100% MeOH at room temperature for 10-15 minutes. Following the permeabilization incubation, cells were washed in PBS/0.05% Tween-20, followed by a block in Odyssey blocking buffer (LI-COR Biosciences) for at least 1 hour. […] Both secondary antibodies were used at a 1:1000 dilution. Cells were then washed and analyzed for fluorescence at both wavelengths using the Odyssey Infrared Imaging System (LI-COR Biosciences). Phosphorylated P90RSK(Ser380) signal was normalized to GAPDH signal.

SMILES	IC50 [nM]
O=c1cc(-c2ccnc(NC3CCOCC3)n2)ccn1[C@H](COP(=O)(O)O)c1ccc(Cl)c(F)c1 [Example α, (S)-2-(4-chloro-3-fluorophenyl)-2-(2-oxo-4-(2-((tetrahydro-2H-pyran-4-yl)amino)pyrimidin-4-yl)pyridin-1(2H)-yl)ethyl dihydrogen phosphate]	955
O=c1cc(-c2ccnc(NC3CCOCC3)n2)ccn1[C@H](COCOP(=O)(O)O)c1ccc(Cl)c(F)c1 [Example β, (S)-(2-(4-chloro-3-fluorophenyl)-2-(2-oxo-4-(2-((tetrahydro-2H-pyran-4-yl)amino)pyrimidin-4-yl)pyridin-1(2H)-yl)ethoxy)methyl dihydrogen phosphate]	99.6
